Assay results published in PubChem BioAssay AID489035 (Sanford-Burnham Center for Chemical Genomics, 2010).
Calls of active or inactive are those of the source. The rule behind the calls is not given here. Starred links: 1 amine or outer side, 2 acyl side, 3 side chain; linkers in the order of their positions; H or OH if unused. Non-standard residues stand in square brackets, D forms with d. Residues, ends and D or L forms follow the SMILES beside them. X2 = CCC[C@@H](N[*:1])[C@H](C)C(=O)O[C@H](C(=O)[*:2])[C@@H](C)CC; X1 = CC(N[*:1])C(=O)C(C)(C)C(=O)[*:2]; NMeY = CN[C@@H](Cc1ccc(O)cc1)C(=O)O; NMeL = CN[C@@H](CC(C)C)C(=O)O; NMeV = CN[C@H](C(=O)O)C(C)C; NMeA = CN[C@@H](C)C(=O)O

These molecules were tested on Jurkat NF-kB reporter, TCR-induced, luciferase luminescence (assay: T-cell NF-kB luciferase reporter inhibition – Jurkat cells, luminescence, dose response (AID 489035)).

| SMILES | IC50 |
| --- | --- |
| CS(=O)(=O)c1ccc(Sc2nc3ccccc3s2)c([N+](=O)[O-])c1 | 0.89 µM |
| COc1cc(-c2c(-c3cc(OC)c(OC)c(OC)c3)noc2C)ccc1F | 31.6 µM (inactive) |
| COc1ccc(OC)c2c1C(=O)C(Cl)=C(Cl)C2=O | 1.65 µM |
| COc1cc(CC(=O)OCC(=O)c2ccc3c(c2)OCCO3)cc(OC)c1OC | > 80 µM (inactive) |
| CCCCc1ccc(NC(=O)c2ccc(N(C)S(C)(=O)=O)cc2)cc1 | < 0.16 µM |
| Cc1ccc(NS(=O)(=O)c2ccc(-c3cnc(C4CC4)o3)cc2)c(C)c1 | 14.8 µM |
| COc1cc2c(c(OC)c1OC)-c1ccc(OC)c(=O)cc1[C@@H](N(C)CC#CCO)CC2 | > 80 µM (inactive) |
| O=c1cc(-c2ccccc2)[nH]c2cc(F)ccc12 | > 80 µM (inactive) |
| COc1ccc(OC)c(C2CC(=O)c3c([nH]c(C(=O)OC(C)C)c3C)C2)c1 (stereo unspecified) | > 80 µM (inactive) |
| COc1ccc(Cl)cc1NC(=O)CN(C)CC(=O)Nc1ccccc1N1CCOCC1 | 41.5 µM (inactive) |
| O=C(CNC(=O)c1ccco1)N=Nc1c(O)n(CCc2ccccc2)c2ccccc12 | > 80 µM (inactive) |
| Cc1cccc(N2CCN(C(=O)c3ccc(S(=O)(=O)N(C)c4ccccc4)cc3)CC2)c1C | > 80 µM (inactive) |
| Nc1nc2n[nH]nc2c(=O)[nH]1 | > 80 µM (inactive) |
| O=C(Sc1cccc2cccnc12)c1ccccc1Br | 3.21 µM |
| CCOC(=O)C(C)Oc1cccc2c(=O)n(CC(=O)NCc3ccco3)ccc12 (stereo unspecified) | > 80 µM (inactive) |
| O=C(COc1ccc(C(=O)c2ccccc2)cc1)NCc1ccc(F)cc1 | 29.2 µM (inactive) |
| COc1ccc(NC(=O)/C(Cl)=C(/Cl)S(=O)Cc2ccccc2)cn1 (stereo unspecified) | 0.26 µM |
| NC(=O)CC(NC(=O)c1ccc(Br)cc1)c1ccc(N2CCCCCC2)c([N+](=O)[O-])c1 (stereo unspecified) | 2.54 µM |
| COc1ccc(S(=O)(=O)Nc2cccc(-c3ccc4nncn4n3)c2)cc1F | > 80 µM (inactive) |
| Cc1nc(Nc2nc3c(c(=O)[nH]2)CCC3)nc2ccccc12 | 3.66 µM |
| Cc1cc(O)c2c(c1O)C(=O)[C@]13C(=C2O)C(=O)[C@@H]2[C@@H](O)[C@H]1[C@@H]1[C@H](O)[C@H]3C(=O)C3=C(O)c4c(O)cc(C)c(O)c4C(=O)[C@]312 | < 0.16 µM |
| O=C(Nc1ccc(S(=O)(=O)N2CCN(Cc3ccccc3)CC2)cc1)c1cnccn1 | > 80 µM (inactive) |
| COc1cc(/C=C2/SC(=Nc3ccc(O)cc3)NC2=O)ccc1O | 10.6 µM |
| Oc1ccccc1N=Nc1nc(-c2ccccc2)c(-c2ccccc2)[nH]1 | 0.82 µM |

| SMILES | IC50 |
| --- | --- |
| CCN1/C(=C/C(C)=C/c2sc3ccccc3[n+]2CC)Sc2ccccc21 | 4.63 µM |
| C(=N\Nc1nc2ccccc2s1)/c1ccccn1 | 0.84 µM |
| CC(C)CCOc1cccc(OCC(=O)Nc2ccncc2)c1 | > 80 µM (inactive) |
| COc1cc(C(=O)N2CCN(c3cc(Cl)ccc3Cl)CC2)cc(OC)c1OC | 24.5 µM (inactive) |
| CCn1c2ccccc2c2cc(Nc3cc(C)nc4ncnn34)ccc21 | > 80 µM (inactive) |
| Cc1ccc(S(=O)(=O)/N=C2\C=C(Nc3ccc(O)cc3)C(=O)c3ccccc32)cc1 | 0.62 µM |
| CC[C@@]1(O)C(=O)OCc2c1cc1n(c2=O)Cc2cc3c(CN(C)C)c(O)ccc3nc2-1 | 0.2 µM |
| O=c1oc2ccccc2cc1-c1cn(-c2ccccc2)c(=S)[nH]1 | 13 µM |
| CC1(C)C[C@H]2C=C(C=O)[C@]3(C=O)C[C@]3(C)[C@H]2C1 | 9.17 µM |
| COc1cccc(-c2cc(=O)c3cc(NC(=O)c4ccccc4)ccc3[nH]2)c1 | > 80 µM (inactive) |
| CCN(CC)c1ccc(-c2nn3c(-c4ccccc4OC)nnc3s2)cc1 | 20.4 µM (inactive) |
| COc1ccc(C(NC(=O)C(C)C)c2ccc3cccnc3c2O)cc1 (stereo unspecified) | 5.96 µM |
| O=C(Nc1ccc(Cc2ccncc2)cc1)c1ccc(S(=O)(=O)N2CCCC2)cc1 | 77.4 µM (inactive) |
| Cc1cccc(NS(=O)(=O)c2ccc(-c3cnc(C4CC4)o3)cc2)c1 | > 80 µM (inactive) |
| CCCCS(=O)(=O)/C=C\C=C/S(=O)(=O)CCCC | 0.72 µM |
| COc1cc(-c2noc(C)c2/C=C/c2ccc(OC(C)=O)cc2)cc(OC)c1OC | 31.5 µM (inactive) |
| CCOC(=O)COc1cccc2c(=O)n(CC(=O)NCc3ccccc3)ccc12 | > 80 µM (inactive) |
| CCCCCCCn1c2c(c(=N)c3ccccc31)CCC2 | 12.3 µM |
| COc1ccc([C@H]2CC(=O)C=C(c3ccc(OC)cc3OC)C2)cc1 | > 80 µM (inactive) |
| CCCCc1ccc(NC(=O)C(=O)NCCN2CCN(Cc3ccc([N+](=O)[O-])cc3)CC2)cc1 | > 80 µM (inactive) |
| C[C@]12CC[C@H](O)C[C@H]1CC[C@@H]1[C@@H]2CC[C@]2(C)[C@@H](C3=CC(=O)OC3)CC[C@]12O | 3.53 µM |
| C=C(C)C(=O)O[C@H]1C/C(C)=C\C(=O)/C=C(\C)[C@H](O)[C@@H]2OC(=O)C(=C)[C@@H]21 | 2.06 µM |
| NS(=O)(=O)c1ccc(Sc2nc3ccccc3s2)c([N+](=O)[O-])c1 | 0.79 µM |
| C[C@]12CC[C@H](O)C[C@H]1CC[C@@H]1[C@@H]2C[C@@H](O)[C@]2(C)[C@@H](C3=CC(=O)OC3)CC[C@]12O | 65.7 µM (inactive) |

| SMILES | IC50 |
| --- | --- |
| Cc1ccc(C(=O)Nc2cc3ccccc3oc2=O)cc1 | 0.32 µM |
| Cc1ccc2nc(SCC(=O)Nc3cc(C(F)(F)F)ccc3N3CCOCC3)[nH]c2c1 | > 80 µM (inactive) |
| Cc1ccc(-n2ncc3c(N4CCN(c5ccccc5)CC4)ncnc32)c(C)c1 | 4.9 µM |
| O=C(Nc1ccc(Oc2cccnc2)nc1)c1ccc(C(F)(F)F)cc1 | > 80 µM (inactive) |
| COc1cccc(N2CCN(c3ncnc4c3cnn4-c3ccc(C)cc3C)CC2)c1 | 11 µM |
| COc1ccc(-n2nnnc2-c2cccc(OC)c2)cc1 | > 80 µM (inactive) |
| Cc1ncoc1C(=O)NC1CCCc2c1cnn2-c1ccc(C(C)(C)C)cc1 (stereo unspecified) | > 80 µM (inactive) |
| CCN(CC)c1ccc2nc3ccc(N)cc3[n+](-c3ccccc3)c2c1 | 2.62 µM |
| CCC[C@H]1NC(=O)[C@H](C)N(C)C(=O)C(C)(C)C(=O)C(C)NC(=O)[C@H](Cc2ccc(OC)cc2)N(C)C(=O)[C@H](C(C)C)N(C)C(=O)CNC(=O)[C@H](CC(C)C)N(C)C(=O)CNC(=O)[C@H]([C@@H](C)CC)OC(=O)[C@H]1C (stereo partly specified) (cyclo(G[NMeL]G[NMeV][NMeY](Me)[X1][NMeA][X2])) | > 80 µM (inactive) |
| COc1cccc(C2CC(=O)Nc3cc4c(cc32)CCC4)c1 (stereo unspecified) | > 80 µM (inactive) |
| COc1ccc(/C=C2/C(=O)OCc3cc(OC)c(OC)cc32)cc1 | > 80 µM (inactive) |
| O=C(Nc1ncc(Cc2ccc(SC(F)F)cc2)s1)c1ccc(OC(F)F)cc1 | 7.42 µM |
| COc1ccc(/C=N/NC(=O)c2[nH]c3ccc(Br)cc3c2-c2ccccc2)cc1 | 1.64 µM |
| CCc1c(C)nc2ncnn2c1NCCc1ccc(OC)cc1 | > 80 µM (inactive) |
| CCOC(=O)c1[nH]c(C)c(C(=O)Nc2ccccc2C)c1C | < 0.16 µM |
| COc1ccc(C2=NOC(C(=O)NCc3ccc(F)cc3)C2)cc1OC (stereo unspecified) | > 80 µM (inactive) |
| CCCC(=O)Nc1nc2ccc(S(=O)(=O)N3CCCCC3)cc2s1 | > 80 µM (inactive) |
| CCOc1ccccc1NS(=O)(=O)c1ccc(-c2cnc(C3CC3)o2)cc1 | 6.3 µM |
| CCOc1ccc2c(c1)OC(c1ccc(OC)cc1)(C(F)(F)F)NC2=O (stereo unspecified) | > 80 µM (inactive) |
| Cc1ccc(NC(=O)Nc2ccnc(-c3cccnc3)n2)cc1 | 0.84 µM |
| CCN1C=CC(=C2C(=O)c3ccccc3C2=O)C=C1 | 1.03 µM |
| CCOc1ccccc1C(=O)N1CCN(c2cccc(Cl)c2)CC1 | > 80 µM (inactive) |
| Cc1cc(C(C)(C)C)cc(C)c1C[n+]1ccc2ccccc2c1 | 58.9 µM (inactive) |
| Oc1ccc2ccccc2c1/C=N/Nc1nnc(-c2ncc[nH]2)c2ccccc12 | > 80 µM (inactive) |

| SMILES | IC50 |
| --- | --- |
| Cc1cc(C)c(S(=O)(=O)Nc2ccc3c4c(cccc24)CC3)c(C)c1 | 61 µM (inactive) |
| COc1ccc(S(=O)(=O)/N=C2\C=C(Nc3ccc(O)cc3)C(=O)c3ccccc32)cc1 | 0.53 µM |
| COc1ccc([C@H]2CC(=O)C=C(c3c(OC)cccc3OC)C2)cc1 | > 80 µM (inactive) |
| CCN(CC)c1ccc(NC(=O)c2cc(OC)cc(OC)c2)c(C)c1 | > 80 µM (inactive) |
| CCCSc1nnc(Sc2nnnn2-c2ccccc2)s1 | 2.09 µM |
| C=CCn1c(C)cc(C2=NNC(=NCC)SC2)c1C | < 0.16 µM |
| CSc1nc(N(C)NC(=O)c2cccc(C)c2)c2ccccc2n1 | 27.8 µM (inactive) |
| COc1ccccc1C(=O)N(CCC1CCCN1C)c1nc2ccccc2s1 (stereo unspecified) | 45.7 µM (inactive) |
| CN(Cc1ccccc1)C1=CC(=[N+]2CCCCC2)CC(C)(C)C1 | 20.3 µM (inactive) |
| CCOc1ccccc1NC(=O)CN(c1ccc(OC)cc1)S(=O)(=O)c1c(C)noc1C | > 80 µM (inactive) |
| COC(=O)c1ccc2nc(Nc3nc4c(F)cc(F)cc4s3)sc2c1 | 52.9 µM (inactive) |
| O=[N+]([O-])c1ccc(-c2nc(C(Cl)Cl)c3ccccc3n2)cc1 | 1.12 µM |
| CC(=O)Nc1ccc(S(=O)(=O)N2c3ccc(F)cc3CCC2C)cc1 (stereo unspecified) | 7.46 µM |
| COc1ccccc1N1CCN(C(=O)c2ccc(-c3ccc(Cl)cc3)o2)CC1 | 34.6 µM (inactive) |
| CCC(=O)N1c2ccc(S(=O)(=O)N3CCN(c4ccc([N+](=O)[O-])cc4)CC3)cc2CC1C (stereo unspecified) | > 80 µM (inactive) |
| CSc1ccc(COC(=O)c2cc([N+](=O)[O-])ccc2N2CCOCC2)cc1 | > 80 µM (inactive) |
| N#C/C(=C\c1ccc(OCc2ccc(C(=O)O)cc2)cc1)C(=O)N1CCOCC1 | 1.55 µM |
| CSc1nccc(-c2nn(-c3ccc(C)cc3)ccc2=O)n1 | 33.3 µM (inactive) |
| COc1cc2c(cc1O)CC[C@@H]1[C@@H]2CC[C@]2(C)[C@@H](O)CC[C@@H]12 | > 80 µM (inactive) |
| CCCCCN1C=CC(=C2C(=O)c3ccccc3C2=O)C=C1 | 0.37 µM |
| O=C1C=C(c2ccc3ncccc3c2)C[C@@H](c2ccc3c(c2)OCO3)C1 | > 80 µM (inactive) |
| CCN(CC)c1ccc(/C=N/NC(=O)c2nnn(-c3nonc3N)c2C(C)C)c(O)c1 | 2.02 µM |
| C=C(C=O)C[C@@H]1C[C@H](O)C2OC3C[C@]4(C)OC5/C=C\CC6OC7C(CC=CCC6OC5CCCC4OC3CC2O1)OC1CC2OC3CC(=O)OC3C[C@@H](C)C[C@@]2(C)OC1C[C@@H]7C (stereo partly specified) | 1.39 µM |
| Cc1ccc(C)c(N=Nc2ccc(O)c3ncccc23)c1 | 28.3 µM (inactive) |
